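A five-concentration, 48-hour dose response in 96-well plates underlies each endpoint, interpolated linearly between surrounding concentrations. GI50 marks 50% less growth. TGI marks complete inhibition of growth.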 Where only a bound is given, the exact number is not on record here.

Assay in all cases: NCI anticancer screen, dose series, 48 h
The subject of assay [1] is A498 renal.
For assay [2], the system named is A549 NSCLC.
For assay [3], the system named is ACHN renal.
The subject of assay [4] is HCT-116 colon.
Assay [5] concerns HS 578T breast.
For assay [6], the system named is MCF7 breast.
Assay [7] concerns MOLT-4 leukemia.
Assay [8] relates to NCI-H23 lung.
The test system of assay [9] is OVCAR-4 ovarian.
Assay [10] relates to TK-10 renal.

Regarding `C#CC[C@H](c1nc2cc(Cl)ccc2c(=O)n1Nc1ccccc1)N(CCCN)C(=O)c1cccc(Cl)c1F`, the GI50 in assay [1] was 0.626 µM; in assay [2], 0.255 µM; in [3] it was 1.73 µM; in assay [4] it was 0.0403 µM; in assay [5] it was 0.162 µM; in assay [6] it was 0.0337 µM. The GI50 was 0.264 µM in assay [7], 0.624 µM in assay [8], 1.16 µM in assay [9] and 1.39 µM in assay [10]. For the same molecule, the TGI in [1] was 3.43 µM; in assay [2], 1.87 µM; in assay [3] it was 3.89 µM; in assay [4], 1.3 µM; in assay [5], 1.19 µM; in [6], 1.36 µM. Also, the TGI in assay [7] was 2.8 µM; in assay [8], 11.2 µM; in assay [9], 2.54 µM; in [10], 2.8 µM.

Regarding `Cc1ccc(C(=O)N/N=C/c2cccc(Oc3ccccc3)c2)cn1`, the GI50 in [1] is 9.99 µM; in assay [2] it was 17 µM; in assay [3], 45.9 µM; in assay [4], 4.69 µM; in assay [5], 6.74 µM; in [6], 3.48 µM. The GI50 is 3.83 µM in [7], 26.6 µM in assay [8], 26.6 µM in assay [9] and 14.4 µM in assay [10]. The TGI in assay [1], in assay [2], in assay [3], in assay [4], in [5] and in [6] was > 100 µM throughout. The TGI in [7] was 34.5 µM; in assay [8] it was > 100 µM; in assay [9] it was > 100 µM; in assay [10] it was > 100 µM.

`NC(=O)C1=C(c2ccccc2)c2ccccc2C1=O`: the TGI in [1] came to 60.8 µM; in assay [2], 37.6 µM; in assay [3] it was 23.5 µM; in assay [4], 34.9 µM; in assay [5], 64.2 µM; in assay [6], 32.9 µM. The TGI turned out to be 14.9 µM in [7], 33.7 µM in assay [8], 33.5 µM in assay [9] and 32.4 µM in assay [10].

Take `CO/N=C1/NC(=O)/C(=C/c2ccc3ncccc3c2)S1`: the GI50 in assay [1] is 3.41 µM; in assay [2] it was 10.7 µM; in [3] it was 10.6 µM; in assay [4], 17.4 µM; in assay [5] it was 4.06 µM; in [6], 4.45 µM. Besides, the GI50 in [7] is 16.1 µM; in assay [8] it was 12.2 µM; in [9], > 25 µM; in assay [10], 8.01 µM. Also, the TGI in assay [1] was 11.5 µM; in assay [2], > 25 µM; in assay [3], > 25 µM; in assay [4] it was > 25 µM; in assay [5], 17.5 µM; in assay [6], > 25 µM. Besides, the TGI in [7], in assay [8], in assay [9] and in [10] was > 25 µM throughout.

As to `Cn1c(=O)c2[nH]c(COCc3nc4c([nH]3)c(=O)n(C)c(=O)n4C)nc2n(C)c1=O`, the TGI in assay [1], in [2], in [3], in assay [4], in assay [5] and in [6] was > 100 µM throughout. The TGI in assay [7], in assay [8], in assay [9] and in assay [10] was > 100 µM each time.

On to `CN(/N=N/c1nc(OCc2ccccc2)c2[nH]cnc2n1)C(=O)N(C)/N=N/c1nc(OCc2ccccc2)c2[nH]cnc2n1`, for which the GI50 is 19.7 µM in [1]; 56 µM in assay [2]; 31.3 µM in assay [3]; 35.2 µM in [4]; 25.5 µM in [5]; 43 µM in [6]. Also, the GI50 is 53.1 µM in assay [7], 34.7 µM in assay [8], > 100 µM in [9] and 27.2 µM in assay [10]. Moreover, the TGI is 54 µM in [1]; > 100 µM in assay [2]; > 100 µM in [3]; > 100 µM in [4]; 85.3 µM in [5]; > 100 µM in assay [6]. For the same molecule, the TGI in [7], in assay [8], in assay [9] and in [10] was > 100 µM throughout.

As for `CC1(C)N=C(N)N=C(N)N1c1cccc(CCCCc2ccc(S(=O)(=O)F)cc2Cl)c1`, the GI50 in assay [1] is > 48.2 µM; in assay [2], 1.42 µM; in assay [3], 8.66 µM; in assay [4], 1.06 µM; in assay [5] it was 43.2 µM; in assay [6], 0.577 µM. Besides, the GI50 in [7] was 7.42 µM; in assay [8], 4.27 µM; in assay [9], 13.9 µM; in assay [10], 8.66 µM. The TGI in [1] is > 100 µM; in [2], > 100 µM; in assay [3], > 100 µM; in assay [4], > 37.7 µM; in assay [5], > 100 µM; in assay [6], 15.7 µM. The TGI in assay [7] is > 65.3 µM; in assay [8] it was 27.3 µM; in assay [9] it was > 100 µM; in assay [10], > 100 µM.

As to `Cc1ccc(NC2=C(Sc3ccc(Cl)cc3)C(=O)N(Cc3ccccc3)C2=O)cc1Cl`, the GI50 in assay [1] is 4.8 µM; in assay [2], 3.38 µM; in assay [3] it was 4.91 µM; in assay [4] it was 3.6 µM; in [5], 3.37 µM; in assay [6], 4.37 µM. In addition, the GI50 in [7] is 10.5 µM; in assay [8], 13.3 µM; in assay [9] it was 4.82 µM; in assay [10] it was 11.7 µM. Besides, the TGI in assay [1] is 17.1 µM; in assay [2] it was 15.9 µM; in [3], 17.1 µM; in assay [4], 15 µM; in assay [5], 18.7 µM; in [6], > 100 µM. In addition, the TGI in assay [7] was 26 µM; in assay [8], 32.8 µM; in [9], 18 µM; in [10], 68.3 µM.

These data come from PubChem BioAssay (NCI).
